Measurements: US11919918B2, “P2X3 andor P2X2/3 receptor antagonist, pharmaceutical composition comprising same, and use thereof” (BEIJING TIDE PHARMACEUTICAL CO., LTD., priority 2017, dated 2024)

Target: human P2X3 receptor (Homo sapiens (Human), UniProt P56373)
Test: Inhibitory activity on human P2X3 receptor (calcium 6 dye FLIPR assay, agonist α,β-MeATP)
Assay type: cell-based
Settings: HEK293-P2X3 stably expressing cell line, FLIPR Tetra
Protocol: (§1) Biological Assay: Determination of the Inhibitory Activity of the Compounds on Human P2X3 and P2X2/3 Receptors
(§2) Cells were seeded into a poly-D-lysine-coated 384-well cell culture plate (Corning) at a density of 11,000 cells/well/25 μL of cell inoculation medium, and were cultured in a cell incubator overnight. On the day of the test, the calcium 6 dye was diluted to a 2× concentration with a assay buffer, 25 μL of the 2× calcium 6 dye was added to the 384-well cell culture plate, which was incubated at 37° C. for 2 hours, and then placed at room temperature for further use. The test compound and the agonist, α,β-MeATP were diluted to a 7× concentration with the assay buffer, 10 μL of the 7× test compound was added to the 384-well cell culture plate, which was incubated at room temperature for 15 minutes, and 10 μL of the 7× α,β-MeATP was transferred into the 384-well cell culture plate. The data were measured and analyzed using FLIPR Tetra, and the half inhibitory concentration (IC50) of the test compound on P2X3 and P2X2/3 receptors was calculated with the GraphPad Prism four-parameter equation.
(§3) Cell lines: human embryonic kidney cells HEK293-P2X3 and HEK293-P2X2/3 stably expressing cell lines;
(§4) Complete cell culture medium: DMEM High Glucose (Life Technology), which contained 10% fetal bovine serum, 4 mM GlutaMAX, 1% penicillin-streptomycin, and 350 μg/mL G418;
(§5) Cell inoculation medium: DMEM High Glucose (Life Technology), which contained 2% fetal bovine serum, and 4 mM GlutaMAX;
(§6) Cell culture conditions: 37° C., 5% CO2;
(§7) Assay buffer: HBSS (containing calcium and magnesium ions), which contained 20 mM HEPES;
(§8) Detection equipment: FLIPR Tetra (Molecular Devices);

Chain of human P2X3 receptor (P56373 whole entry): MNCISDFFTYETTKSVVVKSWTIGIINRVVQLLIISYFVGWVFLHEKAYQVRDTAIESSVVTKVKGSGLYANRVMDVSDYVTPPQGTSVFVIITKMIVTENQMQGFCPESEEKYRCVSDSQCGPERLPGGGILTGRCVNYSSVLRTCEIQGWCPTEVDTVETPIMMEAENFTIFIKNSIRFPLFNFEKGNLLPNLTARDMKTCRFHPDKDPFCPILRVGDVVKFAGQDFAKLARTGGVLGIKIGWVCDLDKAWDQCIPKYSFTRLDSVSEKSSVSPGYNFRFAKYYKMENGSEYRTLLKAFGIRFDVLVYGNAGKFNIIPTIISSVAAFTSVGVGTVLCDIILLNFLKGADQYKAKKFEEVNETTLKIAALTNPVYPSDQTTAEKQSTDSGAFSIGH

Compound | IC50 [nM]
CC(C)c1cnc(N(C)C2CC2)cc1Oc1cnc(N)nc1N [Compound C65, 5-((2-(cyclopropyl (methyl)amino)-5-isopropylpyridin-4-yl)oxy) pyrimidine-2,4-diamine] | 334
C=C(OCC)c1cc(Oc2cnc(N)nc2N)c(C(C)C)cn1 [Compound C45, 5-((2-(1-ethoxyvinyl)-5-isopropylpyridin-4-yl)oxy)pyrimidine-2,4-diamine] | 435
COc1cc(Oc2cnc(N)nc2N)c(Br)cn1 [Compound C124, 5-((5-bromo-2-methoxypyridin-4-yl)oxy)pyrimidine-2,4-diamine] | 1240
CC(C)c1cnc(C(F)(F)F)cc1Oc1cnc(N)nc1N [Compound C67, 5-((5-isopropyl-2-(trifluoromethyl)pyridin-4-yl)oxy)pyrimidine-2,4-diamine] | 490
CC(C)c1cnc(-c2cn[nH]c2)cc1Oc1cnc(N)nc1N [Compound C35, 5-((5-isopropyl-2-(1H-pyrazol-4-yl)pyridin-4-yl)oxy)pyrimidine-2,4-diamine] | 1170
CNc1ncc(Oc2cc(Br)ncc2C(C)C)c(NC)n1 [C227] | 948
CC(C)c1cc(Oc2cnc(N)nc2N)c(C(C)C)cn1 [Compound C16, 5-((2,5-diisopropylpyridin-4-yl)oxy)pyrimidine-2,4-diamine] | 802
CC(C)c1cnc(-n2cccc2)cc1Oc1cnc(N)nc1N [Compound C38, 5-((5-isopropyl-2-(1H-pyrrol-1-yl)pyridin-4-yl)oxy)pyrimidine-2,4-diamine] | 787
CC(C)c1cnc(S(N)(=O)=O)cc1Oc1cnc(N)nc1N [Compound C6, 4-((2,4-diaminopyrimidin-5-yl)oxy)-5-isopropylpyridine-2-sulfonamide] | 348
CC(C)c1c[n+]([O-])c(Br)cc1Oc1cnc(N)nc1N [C1] | 746
CCSc1cc(Sc2cnc(N)nc2N)c(C(C)C)cn1 [Compound C125, 5-((2-(ethylthio)-5-isopropyl-pyridin-4-yl)thio) pyrimidine-2,4-diamine] | 731
CC(C)Nc1cc(Oc2cnc(N)nc2N)c(C(C)C)cn1 [Compound C120, 5-((5-isopropyl-2-(isopropylamino)pyridin-4-yl)oxy)pyrimidine-2,4-diamine] | 492

Next, values leading:

IC50 [nM] | Compound
72 | C#Cc1cc(Oc2cnc(NC(C)C)nc2N)c(C(C)C)cn1 [Compound C233, 5-((2-ethynyl-5-isopropyl-pyrdin-4-yl)oxy)-N^2-isopropyl-pyrmidine-2,4-diamine]
211 | CC(C)c1cnc(C#Cc2ccccn2)cc1Oc1cnc(N)nc1N [Compound C150, 5-((5-isopropyl-2-(pyridin-2-ylethynyl)pyridin-4-yl)oxy)pyrimidine-2,4-diamine]
744 | CC(C)c1cnc(NCCO)cc1Oc1cnc(NCCO)nc1N [Compound C242, 2-((4-((4-amino-2-((2-hydroxyethyl)amino)pyrimidin-5-yl)oxy)-5-isopropyl-pyridin-2-yl)amino)ethanol]
635 | CC(C)c1cnc(/C=C/c2ccccc2)cc1Oc1cnc(N)nc1N [Compound C138, (E)-5-((5-isopropyl-2-styrylpyridin-4-yl)oxy) pyrimidine-2,4-diamine]
377 | CC(C)c1cnc(C(N)=O)cc1Oc1cnc(N)nc1N [Compound C129, 4-((2,4-diamino-pyrimidin-5-yl)oxy)-5-isopropyl-picolinamide]
670 | CC(C)c1cnc(Br)cc1Oc1cnc(N)nc1N[C@H](C)C1CC1 [Compound C182, (R)-5-((2-bromo-5-isopropylpyridin-4-yl)oxy)-N^4-(1-cyclopro-pylethyl) pyrimidine-2,4-diamine]
926 | CC(C)c1cnc(CC(=O)c2ccc(N(C)C)cc2)cc1Oc1cnc(N)nc1N [Compound C155]
316 | CC(C)c1cnc(C#Cc2cnc3cccnn23)cc1Oc1cnc(N)nc1N [Compound C195, 5-((2-(imidazo[1,2-b]pyridazin-3-ylethynyl)-5-isopropylpyridin-4-yl)oxy)pyrimidine-2,4-diamine]

Target: human P2X2/3 receptor (Homo sapiens (Human), UniProt P56373+Q9UBL9)
Test: Inhibitory activity on human P2X2/3 receptor (calcium 6 dye FLIPR assay, agonist α,β-MeATP)
Assay type: cell-based
Settings: HEK293-P2X2/3 stably expressing cell line, FLIPR Tetra
Protocol: as §1, §2, §3, §4, §5, §6, §7, §8

Chain of human P2X2/3 receptor (Q9UBL9 whole entry): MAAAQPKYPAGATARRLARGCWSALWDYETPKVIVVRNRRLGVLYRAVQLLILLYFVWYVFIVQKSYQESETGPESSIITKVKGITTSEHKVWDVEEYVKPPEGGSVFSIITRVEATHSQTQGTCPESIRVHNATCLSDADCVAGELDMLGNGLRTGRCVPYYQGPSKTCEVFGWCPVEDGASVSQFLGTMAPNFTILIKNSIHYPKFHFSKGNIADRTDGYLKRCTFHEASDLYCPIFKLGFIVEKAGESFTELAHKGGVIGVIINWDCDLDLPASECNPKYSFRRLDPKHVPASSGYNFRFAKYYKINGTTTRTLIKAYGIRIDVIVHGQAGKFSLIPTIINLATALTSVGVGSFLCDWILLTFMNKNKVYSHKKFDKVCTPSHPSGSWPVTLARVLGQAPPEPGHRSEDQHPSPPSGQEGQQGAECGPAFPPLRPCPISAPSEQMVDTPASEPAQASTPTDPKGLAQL
Chain of human P2X2/3 receptor (P56373 whole entry): as the sequence (P56373 whole entry) above

IC50 [nM] | Compound
125 | C#Cc1cc(Oc2cnc(NC(C)C)nc2N)c(C(C)C)cn1 [Compound C233, 5-((2-ethynyl-5-isopropyl-pyrdin-4-yl)oxy)-N^2-isopropyl-pyrmidine-2,4-diamine]
232 | CC(C)c1cnc(C#Cc2ccccn2)cc1Oc1cnc(N)nc1N [Compound C150, 5-((5-isopropyl-2-(pyridin-2-ylethynyl)pyridin-4-yl)oxy)pyrimidine-2,4-diamine]
506 | CC(C)c1cnc(N(C)C2CC2)cc1Oc1cnc(N)nc1N [Compound C65, 5-((2-(cyclopropyl (methyl)amino)-5-isopropylpyridin-4-yl)oxy) pyrimidine-2,4-diamine]
